Test results as given in patent publication US20250213451A1, “AN ORAL CARE COMPOSITION COMPRISING A GLYCOLIPID AND A MILD SURFACTANT” (priority 2021, published 2025).

System: oral tissue cells based on EpiOral Tissue Model
Experiment: Oral irritation evaluation, EpiOral Tissue Model
Assay type: cell-based
Procedure: The oral irritation evaluation was conducted to test the surfactant mildness and oral irritation. The test sample solution was prepared in aqueous solution with 1% active content at pH of 7. The test sample solutions were applied to the oral tissue cells based on EpiOral Tissue Model provided by Mattek Corp. The viability of the cells over time was measured and used to calculate the time of exposure until viability is reduced to 50%, which is indicated by ET-50.

Molecule	Oral Irritation Classification (aqueous solution with 1% active content at pH of 7, class from ET-50)	ET-50 based on EpiOral Model (aqueous solution with 1% active content at pH of 7, time of exposure until viability is reduced to 50%)	ET-50 based on EpiOral Model (pH 7)	Oral Irritation Classification (pH 7)
CCCCCCCCCCCCOS(=O)(=O)[O-].[Na+] [Texapon ® OC-N, Sodium Lauryl Sulfate]	Moderately irritation	116.7 min		
Cocamidopropyl Betaine [Dehyton ® PK 45]			181.0 min	Mildly irritation
PEG-12 [Pluracare ® E-600]				None to minimal irritation
